Assays:
cerebellar stem cells = assay: Astrocytic differentiation of cerebellar stem cells (GFAP positive cells); assay type: cell-based, rat; conditions: for % GFAP positive cells: Table 2 experiment
Procedure: (§1) Drug treatments. Stem cells obtained as described above were treated with drugs and subjected to differentiation protocols in the second passage. Cells were plated at a density of 1×10^4 cells per well of a 12-well petridish (Falcon).
Drug treatments were started on the next day. […] The WAY 100635 antagonist compound was used simultaneously with buspirone or serotonin in the blocking experiments. Positive and negative control cultures were those treated with BDNF and FGF alone, respectively.
Cells were treated with the designated concentrations of drugs or combinations thereof, daily, and were fed every alternate day with fresh medium. Experiments were maintained for about 6–10 days in most cases. Cells were fixed on about day 7–11 with a 4% solution of para-formaldehyde (PFA) in PBS, prepared as follows:
Immunofluorescent staining and visualization. After fixation, the PBS was aspirated from the fixed cells and the cells were treated with blocking solution (10% normal goat serum-NGS-Jackson Labs), 0.3% Triton-Sigma, in PBS) to saturate non-specific sites and permeabilize the cells. Following blocking, cells were incubated with the following designated primary antibodies diluted in 5% NGS for 1 hour at room temperatuare: mouse monoclonal anti-MAP-2 (Sigma): 1/250 dilution; mouse monoclonal anti-β tubulin III (Covance): 1/600 dilution; mouse anti-monoclonal glial fibrillary acidic protein (GFAP-ICN Biomedicals): 1/100 dilution.
After the 1 hour incubation, cells were washed three times for 5 min each with PBS followed by incubation of a goat anti-mouse secondary antibody conjugated with stains Cy2 and Cy3 (Jackson Labs) for 1 hr at RT (dilution 1/100 as with the primary antibodies). Following three 5 minute washes with PBS, cells were incubated with the nuclear stain bis-benzimide (Sigma) for 10 min at RT. Cells were then washed 3 times with ultra-pure water and glass coverslips were mounted on them using AquaPolymount (Polysciences, Inc., PA) The mount was allowed to dry and the dishes were stored at 4° C.
For visualization of staining, the mounted cells were viewed under a fluorescent microscope using the appropriate ultra violet filters. An eyepiece with an engraved grid was used to count the cells that stained positive for β tubulin III (TuJ-1), MAP2 or GFAP. The percent of cells positive for a given antigen was estimated by counting nuclei of all cells present in the same field, as the nuclei of the cells stain blue with the bis benzimide. Five fields were counted per treatment condition, and averages with standard deviations were calculated.
To evaluate whether buspirone affected differentiation of neural stem cells into other neural cell types such as astrocytes, the buspirone-treated cerebellar cell cultures described above were subjected to immunofluorescence using a monoclonal antibody against an astrocyte-specific marker, glial fibrillary acidic protein, or GFAP.

striatal stem cells = assay: Differentiation of striatal stem cells (TuJ1 positive cells); assay type: cell-based, rat; conditions: for % TuJ1 positive cells: striatal stem cells, Table 6
Text: Isolation of cortical and striatal stem cells. Timed pregnant Sprague Dawley rats obtained from Taconic at embryonic age E14-E15 were sacrificed as described above and the uterus removed and placed in ice cold PBS in a 10 cm petridish. After rinsing the uterus in PBS, embryos were removed from the uterus, rinsed in PBS and collected in cold HBSS (buffered with HEPES and sodium bicarbonate) in a 10 cm petridish and placed on ice.
The cortex and striatum was dissected under a microscope and collected in a 15 ml tube of HBSS, on ice. Removal of meninges is not possible at this age, and no attempt was made to do so. If the dissected tissue was in large enough chunks and settle to the bottom of the tube, no centrifugation was performed. Alternatively, the tube was centrifuged at 1000 rpm for 5 minutes to pellet the tissue. Following centrifugation, the 15 ml tube containing the tissue was sprayed with 70% ethanol and taken into the sterile hood.
The HBSS was aspirated and replaced with 10 ml of DMEM/F12. The tissue was collected at the bottom of the tube by gravity or centrifugation, medium was aspirated, and 1 ml of DMEM/F12 was to the tissue. Cells were dissociated by trituration as described above, followed by addition of 5 ml of DMEM/F12 and a second round of trituration. […] The tubes were placed standing 5–10 minutes in the hood to allow larger particles and meninges to settle. While the meninges were settling, a cell count was made. 10 μl of the cell suspension is diluted with trypan blue and counted in a hemocytometer. Cells were counted in the four outer chambers with the larger squares, and cell count calculated assuming that the volume enclosed in each of the chambers was […].
Plating, expansion and passaging of cortical and striatal stem cells A generous amount of the triturated cell suspension was left in the original 15 ml tube to avoid fibroblast contamination in cultures. About 4–5 ml of the 6 ml of cells suspension was used for plating. Cells were plated at a concentration of approximately 1×10^6 per 10 cm dish. This culture is designated P0 (passage 0).
Following plating cells were expanded for about 3–4 days. The cultures were never permitted to reach more than 70% confluency. Cultures were then passaged as follows: 5 ml of HBSS was added to each 10 cm dish and the cells incubated at 37° C. for 15–45 minutes, or until sufficient numbers of the stem cells were rounded up. It is not expected that all cells in the culture will round up as there are several cell types in the culture at P0. The pH of the HBSS should be neutral at all times during this incubation. Cells were then removed from the dish by pipetting with a 5 ml pipette, or by scraping with a policeman, collected in a 15 or 50 ml conical tube, and centrifuged at 1000 g for 5 minutes. Cells were gently re-suspended in medium, counted, and plated at a density of about 1×10^6 per 10 cm dish.
as §1
Drug treatments were started on the next day. […] The WAY 100635 antagonist compound was used simultaneously with buspirone or serotonin in the blocking experiments. Positive and negative control cultures were those treated with BDNF and FGF alone, respectively. […]

## O=C1CC2(CCCC2)CC(=O)N1CCCCN1CCN(c2ncccn2)CC1 [buspirone, 8-[4-[4-(2-pyrimidinyl)-1-piperazinyl]butyl]-8-azaspiro[4,5]decane-7,9-dione]
Cerebellar stem cells; 10 nM
  % GFAP positive cells: 26.3 ± 3.7%
Cerebellar stem cells; 30 nM to 1 μM, FIG. 1B and FIG. 4
  effect on astrocytic differentiation: does not have any appreciable reproducible effects
Cerebellar stem cells; 30 nM
  % GFAP positive cells: 12.9 ± 1.9%
Cerebellar stem cells; 100 nM
  % GFAP positive cells: 20.6 ± 5.2%
Cerebellar stem cells; 300 nM
  % GFAP positive cells: 21.4 ± 4.6%
Cerebellar stem cells; 1000 nM
  % GFAP positive cells: 27.0 ± 9.0%
Striatal stem cells; 100 nM
  % TuJ1 positive cells: 54.4 ± 2.1%
Striatal stem cells; 500 nM
  % TuJ1 positive cells: 64.8 ± 2.1%
Striatal stem cells; 10 μM
  % TuJ1 positive cells: 67.9 ± 10.2%
Striatal stem cells; 100 μM
  % TuJ1 positive cells: 68.5 ± 6.5%
Striatal stem cells; striatum, concentrations as low as 100 nM
  promotion of differentiation compared to untreated control cultures (in words): able to promote differentiation significantly

Source: patent US7132287B2, “Method for neural stem cell differentiation using 5HT-1A agonists” (Psychiatric Genomics, Inc., priority 2001, dated 2006)
